From US11186543B2, “Crystalline form of 3-((L-valyl)amino))-3,3-dideuterium-1-propanesulfonic acid, preparation method and uses thereof” (RISEN (SUZHOU) PHARMA TECH CO., LTD., priority 2018, dated 2021) come the findings set out here.

Each structure is given as a SMILES string.

Common to all, as to assay type: physicochemical
Series [1] in a line: Dynamic Vapor Sorption (DVS) analysis. The settings on record: from 0% RH to 80% RH, 25° C. How it is done:
The dynamic vapor sorption (DVS) instrument involved herein is Q5000TGA from TA Instruments; detection conditions: a platinum crucible, a protective atmosphere of nitrogen, a gas flow rate of 10 mL/min; and the following detection method: [table] 5. Dynamic Vapor Sorption (DVS) Analysis of Said Crystalline Form A The determination was carried out using the aforementioned instruments, determination methods, operating conditions, and parameters.

Series [2] can be described thus: Thermogravimetric Analysis (TGA). Here is the method:
The thermogravimetric analyzer (TGA) involved herein is Q500TGA from TA Instruments; detection conditions: a platinum crucible, a protective atmosphere of nitrogen, a gas flow rate of 40 mL/min; and the following detection method: a Hi-Res sensitivity of 3.0, ramp 10.00° C./min, res 5.0 to 150.00° C., and ramp 10.00° C./min to 350° C. 4. Thermogravimetric Analysis (TGA) of Said Crystalline Form A The determination was carried out using the aforementioned instruments, determination methods, operating conditions, and parameters.

Series [3] can be described thus: Stability test of Crystalline Form A (XRD and DSC, Day 0 / Day 10). The settings on record: for change of crystalline form (XRD test): within 10 days. How it is done:
Sample and experimental preparation: the Crystalline Form A as prepared in Example 2 was taken as a sample; a proper amount of the sample was weighted and placed on a watch glass to form a thin layer of about 3˜5 mm in thickness.
Experimental conditions: conventional (sealed and kept in darkness at 25° C.), long-term (uncovered and kept in darkness with −60% RH at 25° C.), and accelerated (uncovered and kept in darkness with −75% RH at 40° C.) conditions.
Detection time: Day 0, Day 10.
Detected items: crystalline forms (XRD test), and melting points (DSC test).

In the case of `[2H]C([2H])(CCS(=O)(=O)O)NC(=O)[C@@H](N)C(C)C` [Crystalline Form A, 3-((L-valyl)amino)-3,3-dideuterium-1-propanesulfonic acid], the “hygroscopicity class (DVS determination criteria)” value in series [1] is “slightly hygroscopic”. The “weight change (DVS isotherm)” value in series [1] was “about 0.3 wt %”. In addition, in series [2] (before 120° C.), the “weight loss (TGA)” value is “about 0.9 wt %”. Moreover, the “decomposition temperature (TGA)” value in series [2] (ramp 10° C./min, nitrogen) is “about 326 °C”. The “variation of melting point (DSC test)” value in series [3] is “±1 °C”. The “change of crystalline form (XRD test)” value in series [3] (accelerated: uncovered, kept in darkness with −75% RH at 40° C.) is “no change was detected”; in series [3] (conventional: sealed, kept in darkness at 25° C.) it was “no change was detected”; in series [3] (long-term: uncovered, kept in darkness with −60% RH at 25° C.), “no change was detected”.
